The structures appear in SMILES notation.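 Dose response: 5 concentrations. Exposure: 48 h. Format: 96-well plates. Endpoint: linear interpolation; highest concentration if not reached. GI50 marks 50% less growth. TGI: concentration producing complete growth inhibition.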

For 11 compounds, TGI and GI50 results are on record in PubChem BioAssay (NCI).

Holding throughout (experiment): NCI anticancer screen, dose series, 48 h
In experiment [1] the test system is CAKI-1 renal.
The subject of experiment [2] is SK-MEL-2 melanoma.
In experiment [3] the test system is HT29 colon.
The test system of experiment [4] is UO-31 renal.
For experiment [5], the system named is IGROV1 ovarian.
Experiment [6] has as its system NCI-H226 lung.
For experiment [7], the system named is SK-MEL-28 melanoma.
Experiment [8] relates to MOLT-4 leukemia.
For experiment [9], the system named is HOP-92 NSCLC.
The test system of experiment [10] is M14 melanoma.

Take `NC(N)=N/N=C(/c1nc2ccc([N+](=O)[O-])cc2[nH]c1=O)C(O)c1ccco1` (stereo not given): the TGI in [1], in experiment [2], in [3], in experiment [4], in experiment [5] and in [6] was above 100 µM throughout. Besides, the TGI in experiment [7], in experiment [8], in experiment [9] and in [10] was above 100 µM throughout.

As for `O=C1C=C(c2c(O)ccc3ccccc23)c2ccccc2C1=O`, the TGI in experiment [1] was 24 µM; in experiment [2], 15.8 µM; in experiment [3], 27.2 µM; in experiment [4], 6.52 µM; in experiment [5], 9.01 µM; in experiment [6], 27.9 µM. Further, the TGI in experiment [7] is above 50 µM; in [8], 4.41 µM; in [9], 5.09 µM; in [10], 16.8 µM.

`COc1ccc2c(c1)C(=O)CC(N)C2` (stereo not given): the TGI in experiment [1], in [2], in [3], in [4], in experiment [5] and in experiment [6] was above 100 µM in each case. Besides, the TGI in [7], in experiment [8], in [9] and in [10] was above 100 µM throughout.

Consider `CC1=CSC2=NC(c3ccc(Cl)c(Cl)c3)=CC(c3ccc(Cl)cc3)N12` (stereo not given), for which the GI50 in [1], in [2], in experiment [3], in experiment [4], in experiment [5] and in [6] was above 100 µM in each case. The GI50 in [7], in [8], in experiment [9] and in experiment [10] was above 100 µM throughout. Also, the TGI in experiment [1], in experiment [2], in experiment [3], in experiment [4], in experiment [5] and in experiment [6] was above 100 µM in each case. The TGI in [7], in [8], in experiment [9] and in experiment [10] was above 100 µM each time.

As to `Oc1ccc(N=Nc2ccc(Cl)cc2)cc1`, the TGI came to 36.6 µM in experiment [1]; 28.4 µM in [2]; 32.2 µM in experiment [3]; 27.7 µM in experiment [4]; 29.3 µM in [5]; 35.6 µM in experiment [6]. Further, the TGI turned out to be 54.1 µM in [7], 51.7 µM in experiment [8], 29.2 µM in [9] and 23.3 µM in experiment [10].

For the compound `CCCCCCNC(=O)C1=C(C)NC(C)=C(C(=O)NCCCCCC)C1`, the TGI in [1], in experiment [2], in experiment [3], in [4], in [5] and in [6] was above 100 µM in each case. Further, the TGI in [7], in experiment [8], in [9] and in experiment [10] was above 100 µM each time.

For the compound `O=c1cc(-c2ccccc2)[nH]c2cc(Cl)cc(Cl)c12`, the TGI in [1], in experiment [2], in experiment [3], in [4], in [5] and in experiment [6] was above 100 µM each time. Besides, the TGI in experiment [7] was above 100 µM; in experiment [8], above 100 µM; in [9], 58.3 µM; in experiment [10], above 100 µM.

As to `CN(C)CCNc1nc2ccccc2c2c1c1c(n2Cc2ccccc2)-c2ccccc2C1=O`, the GI50 in experiment [1] is 18 µM; in [2] it was 10.9 µM; in experiment [3], 6.92 µM; in experiment [4] it was 14.3 µM; in experiment [5] it was 12.1 µM; in [6] it was 20.2 µM. In addition, the GI50 in experiment [7] is 16.8 µM; in experiment [8], 4.77 µM; in experiment [9], 6.19 µM; in experiment [10], 18.6 µM. Also, the TGI is 37.1 µM in experiment [1]; 28.9 µM in experiment [2]; 22.2 µM in experiment [3]; 35.4 µM in experiment [4]; 49.5 µM in [5]; 50.3 µM in experiment [6]. The TGI was 32.3 µM in [7], 18.5 µM in experiment [8], 21.2 µM in experiment [9] and 40.7 µM in experiment [10].

For the compound `CCCCNc1nc(NC(C)(C)C)nc(NC(C)(C)C)n1`, the GI50 is 5.55 µM in experiment [1]; 15.4 µM in experiment [2]; 2.37 µM in [3]; 7.41 µM in [4]; 16.3 µM in experiment [5]; 6.44 µM in experiment [6]. Further, the GI50 is 30 µM in experiment [7], 5.69 µM in experiment [8], 1.38 µM in experiment [9] and 15.7 µM in experiment [10]. Also, the TGI in experiment [1], in experiment [2], in experiment [3], in [4], in experiment [5] and in experiment [6] was above 100 µM in each case. Also, the TGI in experiment [7] is above 100 µM; in [8], above 100 µM; in [9], 24.2 µM; in [10], above 100 µM.

Turning to `O=C(O)C1CCc2ccc3ccccc3c2C1c1cccc2ccccc12` (stereo not given), the TGI was above 100 µM in experiment [1]; 38.6 µM in experiment [2]; 32.7 µM in experiment [3]; 40.5 µM in experiment [4]; 63.3 µM in [5]; 60 µM in experiment [6]. The TGI in experiment [7] came out at 39.5 µM; in experiment [8], 48.7 µM; in experiment [9], 38.6 µM; in experiment [10] it was 38.9 µM.

For the compound `COc1ccc(NC(=O)C2C(=O)N(c3ccc(OC)cc3)C(=O)/C2=N/O)cc1` (stereo not given), the TGI in experiment [1] is above 77.3 µM; in [2], above 86.8 µM; in experiment [3], above 100 µM; in experiment [4], 47 µM; in [5] it was above 80.7 µM; in experiment [6] it was 55.7 µM. Further, the TGI is above 96.8 µM in [7], above 100 µM in experiment [8], 47.8 µM in [9] and above 86.6 µM in experiment [10].
